Tests used:
[1] = system: SMMC-7721; experiment: Cytotoxicity against human SMMC7721 cells incubated for 72 hrs by MTT assay; format: functional, cell-based; conditions: SMMC-7721, 72 h
[2] = system: L02; experiment: Cytotoxicity against human L02 cells incubated for 72 hrs by MTT assay; format: cell-based; conditions: L02, 72 h
[3] = system: SMMC-7721; experiment: Induction of apoptosis in human SMMC7721 cells assessed as live cells at 1 ug/ml incubated for 72 hrs by Annexin V-FITC/PI staining based flow cytometric analysis (reference value: 94.81 to 96.55%); format: functional
[4] = system: SMMC-7721; experiment: Induction of apoptosis in human SMMC7721 cells assessed as live cells at 10 ug/ml incubated for 72 hrs by Annexin V-FITC/PI staining based flow cytometric analysis (reference value: 94.81 to 96.55%); format: functional
[5] = system: CCD-18Co; experiment: Cytotoxicity against human CCD-18Co cells incubated for 72 hrs by MTT assay; format: cell-based
[6] = system: SMMC-7721; experiment: Induction of apoptosis in human SMMC7721 cells assessed as early apoptotic cells at 10 ug/ml incubated for 72 hrs by Annexin V-FITC/PI staining based flow cytometric analysis (reference value: 1.31 to 1.65%); format: functional
[7] = system: SMMC-7721; experiment: Induction of apoptosis in human SMMC7721 cells assessed as live cells at 50 ug/ml incubated for 72 hrs by Annexin V-FITC/PI staining based flow cytometric analysis (reference value: 94.81 to 96.55%); format: functional
[8] = system: SMMC-7721; experiment: Induction of apoptosis in human SMMC7721 cells assessed as necrotic cells at 1 ug/ml incubated for 72 hrs by Annexin V-FITC/PI staining based flow cytometric analysis (reference value: 0.52 to 0.72%); format: functional
[9] = system: MCF7; experiment: Cytotoxicity against human MCF7 cells incubated for 72 hrs by MTT assay; format: functional, cell-based; conditions: MCF7, 72 h
[10] = system: SMMC-7721; experiment: Induction of apoptosis in human SMMC7721 cells assessed as late apoptotic cells at 50 ug/ml incubated for 72 hrs by Annexin V-FITC/PI staining based flow cytometric analysis (reference value: 1.63 to 2.82%); format: functional
[11] = system: SMMC-7721; experiment: Induction of apoptosis in human SMMC7721 cells assessed as late apoptotic cells at 1 ug/ml incubated for 72 hrs by Annexin V-FITC/PI staining based flow cytometric analysis (reference value: 1.63 to 2.82%); format: functional
[12] = system: RWPE-1; experiment: Cytotoxicity against human RWPE1 cells incubated for 72 hrs by MTT assay; format: cell-based; conditions: RWPE-1, 72 h
[13] = system: SMMC-7721; experiment: Induction of apoptosis in human SMMC7721 cells assessed as late apoptotic cells at 10 ug/ml incubated for 72 hrs by Annexin V-FITC/PI staining based flow cytometric analysis (reference value: 1.63 to 2.82%); format: functional
[14] = system: HCT-116; experiment: Cytotoxicity against human HCT116 cells incubated for 72 hrs by MTT assay; format: functional, cell-based; conditions: HCT-116, 72 h
[15] = system: MCF-10A; experiment: Cytotoxicity against human MCF10A cells incubated for 72 hrs by MTT assay; format: cell-based
[16] = system: SMMC-7721; experiment: Induction of apoptosis in human SMMC7721 cells assessed as early apoptotic cells at 1 ug/ml incubated for 72 hrs by Annexin V-FITC/PI staining based flow cytometric analysis (reference value: 1.31 to 1.65%); format: functional
[17] = system: DU-145; experiment: Cytotoxicity against human DU145 cells incubated for 72 hrs by MTT assay; format: functional, cell-based; conditions: DU-145, 72 h
[18] = system: SMMC-7721; experiment: Induction of apoptosis in human SMMC7721 cells assessed as necrotic cells at 50 ug/ml incubated for 72 hrs by Annexin V-FITC/PI staining based flow cytometric analysis (reference value: 0.52 to 0.72%); format: functional
[19] = system: SMMC-7721; experiment: Induction of apoptosis in human SMMC7721 cells assessed as necrotic cells at 10 ug/ml incubated for 72 hrs by Annexin V-FITC/PI staining based flow cytometric analysis (reference value: 0.52 to 0.72%); format: functional
[20] = system: SMMC-7721; experiment: Induction of apoptosis in human SMMC7721 cells assessed as early apoptotic cells at 50 ug/ml incubated for 72 hrs by Annexin V-FITC/PI staining based flow cytometric analysis (reference value: 1.31 to 1.65%); format: functional

SMILES	IC50 [1]	IC50 [2]	other results
C[C@H]1[C@H](N2CCN(C(=S)SCc3ccccc3Cl)CC2)O[C@@H]2O[C@@]3(C)CC[C@H]4[C@H](C)CC[C@@H]1[C@@]24OO3	23.7 nM	200 nM	–
C[C@H]1[C@H](N2CCN(C(=S)SCc3ccc(Br)cc3)CC2)O[C@@H]2O[C@@]3(C)CC[C@H]4[C@H](C)CC[C@@H]1[C@@]24OO3	7 nM	150 nM	–
C[C@H]1[C@H](N2CCN(C(=S)SCc3ccccc3)CC2)O[C@@H]2O[C@@]3(C)CC[C@H]4[C@H](C)CC[C@@H]1[C@@]24OO3	26 nM	300 nM	–
C[C@H]1[C@H](N2CCN(C(=S)SCC(=O)OCc3ccccc3)CC2)O[C@@H]2O[C@@]3(C)CC[C@H]4[C@H](C)CC[C@@H]1[C@@]24OO3	33.2 nM	150 nM	–
C[C@H]1[C@H](N2CCN(C(=S)SCc3ccc(Cl)cc3)CC2)O[C@@H]2O[C@@]3(C)CC[C@H]4[C@H](C)CC[C@@H]1[C@@]24OO3	28.4 nM	170 nM	–
Nc1ccn([C@@H]2O[C@H](CO)[C@@H](O)[C@@H]2O)c(=O)n1 [CYTARABINE]	27.1 nM	210 nM	–
Cc1ccc(CSC(=S)N2CCN([C@@H]3O[C@@H]4O[C@@]5(C)CC[C@H]6[C@H](C)CC[C@@H]([C@H]3C)[C@@]46OO5)CC2)cc1	10.2 nM	230 nM	–
CCCCCSC(=S)N1CCN([C@@H]2O[C@@H]3O[C@@]4(C)CC[C@H]5[C@H](C)CC[C@@H]([C@H]2C)[C@@]35OO4)CC1	37.1 nM	180 nM	–
C[C@H]1[C@H](N2CCN(C(=S)SCc3ccc([N+](=O)[O-])cc3)CC2)O[C@@H]2O[C@@]3(C)CC[C@H]4[C@H](C)CC[C@@H]1[C@@]24OO3	16.7 nM	170 nM	–
C[C@H]1[C@H](N2CCN(C(=S)SCc3ccc4ccccc4c3)CC2)O[C@@H]2O[C@@]3(C)CC[C@H]4[C@H](C)CC[C@@H]1[C@@]24OO3	24.3 nM	160 nM	–
C[C@H]1[C@H](N2CCN(C(=S)SCc3ccc(C#N)cc3)CC2)O[C@@H]2O[C@@]3(C)CC[C@H]4[C@H](C)CC[C@@H]1[C@@]24OO3	2.5 nM	180 nM	Activity [3]: 61.22 - 63.68%; Activity [4]: 50.41 - 53.94%; IC50 [5]: 40.6 nM; Activity [6]: 30.54 - 31.3%; Activity [7]: 28.05 - 29.95%; Activity [8]: 2.2 - 2.98%; IC50 [9]: 13.5 nM; Activity [10]: 21.86 - 24.63%; Activity [11]: 6.72 - 9.36%; IC50 [12]: 10.5 nM; Activity [13]: 12.36 - 14.62%; IC50 [14]: 40.2 nM; IC50 [15]: 22.4 nM; Activity [16]: 26.43 - 27.05%; IC50 [17]: 6.3 nM; Activity [18]: 1.5 - 1.77%; Activity [19]: 3.07 - 4.04%; Activity [20]: 45.82 - 46.69%
CCCCCCCCCCCCCCCCCCSC(=S)N1CCN([C@@H]2O[C@@H]3O[C@@]4(C)CC[C@H]5[C@H](C)CC[C@@H]([C@H]2C)[C@@]35OO4)CC1	16 nM	130 nM	–
CC[C@]1(O)C[C@H]2CN(CCc3c([nH]c4ccccc34)[C@@](C(=O)OC)(c3cc4c(cc3OC)N(C=O)[C@H]3[C@@](O)(C(=O)OC)[C@H](OC(C)=O)[C@]5(CC)C=CCN6CC[C@]43[C@@H]65)C2)C1 [VINCRISTINE]	10.3 nM	60 nM	–
C[C@H]1[C@@H](O)O[C@@H]2O[C@@]3(C)CC[C@H]4[C@H](C)CC[C@@H]1[C@@]24OO3 [ARTENIMOL]	> 100 nM	360 nM	–
Cc1ccccc1CSC(=S)N1CCN([C@@H]2O[C@@H]3O[C@@]4(C)CC[C@H]5[C@H](C)CC[C@@H]([C@H]2C)[C@@]35OO4)CC1	11.4 nM	250 nM	–

Source: ChEMBL document CHEMBL4346655, “Synthesis and biological activities of artemisinin-piperazine-dithiocarbamate derivatives” (Eur J Med Chem, 2019)
